Assay results reported in patent publication CN114573468A, “蛋白抑制剂及其应用” (priority 2022, dated 2022).

Columns and labels:
[1] = system: breast cancer 4T1.2-luc cells (乳腺癌4T1.2-luc细胞); assay: HE staining of bone sections in mouse bone metastasis model; assay type: in vivo; conditions: 0.44mg/ml epirubicin alone; Fig. 7H
[2] = system: breast cancer 4T1.2-luc cells (乳腺癌4T1.2-luc细胞); assay: Bioluminescence imaging in mouse breast cancer bone metastasis model; assay type: in vivo; conditions: 0.44mg/ml epirubicin alone, i.p., 5ml/kg, every 3 days
[3] = system: breast cancer 4T1.2-luc cells (乳腺癌4T1.2-luc细胞); assay: X-ray CT of hind limb bones in mouse bone metastasis model; assay type: in vivo; conditions: 0.44mg/ml epirubicin alone, i.p.
[4] = system: osteoclasts (破骨细胞); assay: TRAP staining (osteoclasts) of bone sections in mouse bone metastasis model; assay type: in vivo; conditions: Fig. 7N
[5] = system: 4T1.2 cells (4T1.2细胞); assay: Cell scratch (migration) assay, 4T1.2; assay type: cell-based, mouse; conditions: 4T1.2, scratch assay, concentration-dependent
[6] = system: breast cancer 4T1.2 cells (乳腺癌4T1.2细胞); assay: Survival of BALB/C mice with subcutaneous 4T1.2 tumors; assay type: in vivo, mouse; conditions: inhibitor given in combination with 0.44mg/ml epirubicin
[7] = system: Snail; assay: Immunoblot of Snail expression in 4T1.2 cells (EMT); assay type: cell-based, mouse; conditions: 100nM and 1μM, 96h
[8] = system: breast cancer 4T1.2 cells (乳腺癌4T1.2细胞); assay: Transwell Matrigel invasion assay, 4T1.2; assay type: cell-based, mouse; conditions: 4T1.2, Transwell Matrigel, 12h, concentration-dependent
[9] = system: MMP-9; assay: Immunoblot of MMP-9 expression in 4T1.2 cells (EMT); assay type: cell-based, mouse; conditions: 100nM and 1μM, 96h
[10] = system: E-cadherin; assay: Immunoblot of E-cadherin expression in 4T1.2 cells (EMT); assay type: cell-based, mouse; conditions: 100nM and 1μM, 96h
[11] = system: AEP (breast cancer 4T1.2 cells, 乳腺癌4T1.2细胞); assay: Immunoblot of AEP expression in 4T1.2 cells; assay type: cell-based, mouse; conditions: 1 μM, 96h, vs control (0nM), p<0.05
[12] = system: mouse highly metastatic breast cancer cells 4T1.2 (小鼠高转移性乳腺癌细胞4T1.2)
[13] = system: human breast cancer cells MDA-MB-231 (人乳腺癌细胞MDA-MB-231)
[14] = target: T1, recombinant human legumain (重组人legumain蛋白(rhLegumain)) (Homo sapiens, UniProt Q99538); assay: AEP activity assay with recombinant human legumain, substrate Z-AAN-AMC; assay type: biochemical; conditions: Fig. 2E
T1 construct: 30ng/μl活化的rhLegumain在测定缓冲液; purchased 2199-CY
T1 sequence (Q99538 18-323 limits assumed): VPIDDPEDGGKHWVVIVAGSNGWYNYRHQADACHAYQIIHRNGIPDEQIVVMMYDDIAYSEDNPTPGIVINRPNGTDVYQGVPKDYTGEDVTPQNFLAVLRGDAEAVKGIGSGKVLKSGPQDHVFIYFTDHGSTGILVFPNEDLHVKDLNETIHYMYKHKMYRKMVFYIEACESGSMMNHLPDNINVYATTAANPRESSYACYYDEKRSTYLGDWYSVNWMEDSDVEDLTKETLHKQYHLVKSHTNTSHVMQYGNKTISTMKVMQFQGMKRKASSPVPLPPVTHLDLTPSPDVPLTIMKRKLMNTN

[15] = system: breast cancer MDA-MB-231 cells (乳腺癌MDA-MB-231细胞); assay: Cell scratch (migration) assay, MDA-MB-231; assay type: cell-based, human; conditions: MDA-MB-231, scratch assay, concentration-dependent
[16] = target: T2, endogenous AEP of 293L cells (293L细胞, AEP的内源性酶活性) (Homo sapiens, UniProt Q99538); assay: Endogenous AEP activity in cell lysate and medium of 293L cells; assay type: cell-based; conditions: 293L cells cultured with different doses of inhibitor
T2 construct: 验证抑制剂是否能有效抑制AEP的内源性酶活性; endogenous in cells; host or cells: 293L cells
T2 sequence (Q99538 18-433): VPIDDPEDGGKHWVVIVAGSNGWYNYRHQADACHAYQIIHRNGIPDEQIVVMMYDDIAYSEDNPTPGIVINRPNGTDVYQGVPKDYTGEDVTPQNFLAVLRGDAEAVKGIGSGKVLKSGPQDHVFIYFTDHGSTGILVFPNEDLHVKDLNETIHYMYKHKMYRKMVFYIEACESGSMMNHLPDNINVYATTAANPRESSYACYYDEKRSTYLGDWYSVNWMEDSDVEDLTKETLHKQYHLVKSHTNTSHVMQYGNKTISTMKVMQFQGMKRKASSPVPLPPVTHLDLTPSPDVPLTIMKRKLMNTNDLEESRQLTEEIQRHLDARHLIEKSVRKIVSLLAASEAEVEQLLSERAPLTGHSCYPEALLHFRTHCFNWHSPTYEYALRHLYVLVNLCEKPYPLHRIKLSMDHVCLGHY

COc1cccc2c1C(=O)c1c(O)c3c(c(O)c1C2=O)C[C@@](O)(C(=O)CO)C[C@@H]3O[C@H]1C[C@H](N)[C@@H](O)[C@H](C)O1 [表柔比星]
tumor cell invasion of bone tissue (HE staining) [1]: 肿瘤细胞突破了骨组织,呈现侵袭状
bone tumor growth (bioluminescence) [2]: 所有小鼠的胫骨近端、股骨或背侧脊柱都有肿瘤生长
bone structure and bone erosion (X-ray CT) [3]: 骨结构不完整,存在骨侵蚀
increase in osteoclast number in the epirubicin group compared with the 2 inhibitor-treated groups ([4]; 0.44mg/ml epirubicin alone): 3.6 倍 (fold)

CH2CH[N(CH2CH3)2]CON(COCH2Cl)CH2CONH2 [化合物①]
cell migration ability [5]: 减弱
survival of tumor mice [6]: 明显延长
Snail expression [7]: 表达下调
number of invading cells [8]: 减少各细胞的侵袭细胞数目
MMP-9 expression [9]: 表达下调
E-cadherin expression [10]: 表达上调
decrease of AEP expression [11]: 82.31%
increase in osteoclast number in the control group compared with the 2 inhibitor-treated groups ([4]; control (PBS) relative to groups given epirubicin + inhibitor): 4 倍 (fold)
cell viability / growth compared with control [12]: 与对照组相差很小
cell viability / growth compared with control [13]: 与对照组相差很小
AEP enzyme activity over time ([14]; 100nM inhibitor vs control (0nM), p<0.05, pH5.0): 显著抑制
AEP enzyme activity over time ([14]; 1 μM inhibitor vs control (0nM), p<0.01, pH5.0): 显著抑制
cell migration ability [15]: 减弱
AEP enzyme activity in cell culture medium [16]: 能够以剂量依赖性方式抑制
